Experimental data published in publication PMC6930659, “Antiprotozoal Activity of Turkish Origanum onites Essential Oil and Its Components” (Molecules, 2019).
Values after ≈ are worked out from the molar mass of the structure shown. “Also recorded” adds a separate entry of the source. Where two headings read alike, the source gives them in different places.

Columns and labels:
[1] = system: T. brucei brucei; set-up: method as in PMID 20359874; conditions: life stage or form has not been reported; cited from earlier work
[2] = system: L. donovani (strain MHOM/ET/67/L82) amastigotes; assay: In vitro assay for Leishmania donovani axenic amastigotes (resazurin); assay type: cell-based; conditions: 72 h, read-out: IC50 Leishmania donovani
Description: Amastigotes of L. donovani (strain MHOM/ET/67/L82) were grown in axenic culture at 37 °C in SM medium at pH 5.4 supplemented with 10% heat-inactivated FBS under an atmosphere of 5% CO2. Culture medium (100 μL) with 10^5 amastigotes from axenic culture with or without a serial drug dilution was seeded in 96 well microtiter plates. Serial drug was prepared covering a range of dilutions from 90 to 0.123 μg/mL. After 72 h of incubation, the plates were inspected under an inverted microscope to assure growth of the controls and sterile conditions. Subsequently, 10 μL resazurin solution (12.5 mg resazurin dissolved in 100 mL double-distilled water) was added to each well and the plates were incubated for another 2 h. The plates were then read with a Spectramax Gemini XS microplate fluorometer (Molecular Devices Cooperation, Sunnyvale, CA, USA) using an excitation wavelength of 536 nm and an emission wavelength of 588 nm. Data were analyzed using the software Softmax Pro (Molecular Devices Cooperation, Sunnyvale, CA, USA). A decrease of fluorescence (=inhibition) was expressed as percentage of the fluorescence of control cultures and plotted against the drug concentrations. From the sigmoidal inhibition curves, the IC50 values were calculated. Miltefosine was used as a reference drug.

[3] = system: promastigote forms of L. chagasi; set-up: method as in PMID 23558998, PMID 23850505; conditions: cited from earlier work
[4] = system: P. falciparum K1 strain; assay: In vitro assay for Plasmodium falciparum ([3H]-hypoxanthine incorporation); assay type: cell-based
Description: Activity against the erythrocytic stages of P. falciparum was determined using an in vitro modified [^3H]-hypoxanthine incorporation assay, using the chloroquine- and pyrimethamine-resistant K1 strain [68]. Compounds were dissolved in DMSO at 10 mg/mL and further diluted in medium before added to parasite cultures incubated in RPMI 1640 medium without hypoxanthine, supplemented with HEPES (5.94 g/l), NaHCO3 (2.1 g/L), neomycin (100 U/mL), AlbumaxR (5 g/L), and washed human red cells A+ at 2.5% haematocrit (0.3% parasitaemia). Serial drug dilutions of seven 3-fold dilution steps covering a range from 90 to 0.123 μg/mL were prepared. The 96 well plates were incubated in a humidified atmosphere at 37 °C; 4% CO2, 3% O2, 93% N2. After 48 h 50 μL of ^3H-hypoxanthine (=0.5 μCi) was added to each well of the plate. The plates were incubated for a further 24 h under the same conditions. The plates were then harvested with a Betaplate™ cell harvester (Wallac, Zurich, Switzerland), and the red blood cells transferred onto a glass fiber filter then washed with distilled water. The dried filters were inserted into a plastic foil with 10 mL of scintillation fluid, and counted in a Betaplate™ liquid scintillation counter (Wallac, Zurich, Switzerland). […] IC50 values were calculated from the sigmoidal inhibition curves using Microsoft Excel. Chloroquine was used as positive control drug.

[5] = system: T. cruzi Tulahuen strain C2C4; assay: In vitro assay for Trypanosoma cruzi in L-6 cells (β-galactosidase/CPRG); assay type: cell-based; conditions: highest concentration tested 90 μg/mL; for IC50: Trypanosoma cruzi, L6, Tulahuen C2C4 in L-6 cells, 96 h, means of two determinations ± deviation
Description: Rat skeletal myoblasts (L-6 cells) were seeded in 96 well microtiter plates (2000 cells/well) in 100 μL RPMI 1640 medium with 10% FBS and 2 mM L-glutamine for 24 h. After that, the medium was removed and replaced by 100 μL per well containing 5000 trypomastigote forms of T. cruzi Tulahuen strain C2C4, containing the β-galactosidase (Lac Z) gene. The medium was removed from the wells after 48 h, and replaced with 100 μL fresh medium with or without a serial drug dilution of seven 3-fold dilution steps covering a range from 90 to 0.123 μg/mL. After 96 h of incubation, the plates were inspected under an inverted microscope to assure growth of the controls and sterility, after which the substrate CPRG/Nonidet ([…]) was added to all wells. A color reaction developed within 2–6 h and could be read photometrically at 540 nm. Data were transferred into the graphic program Softmax Pro (Molecular Devices Cooperation, Sunnyvale, CA, USA) and the IC50 values were calculated from the sigmoidal dose response curves. Benznidazole was the reference drug.

[6] = system: T. brucei brucei STIB795; assay: In vivo trypanocidal activity, T. brucei brucei STIB795 mouse model; set-up: species or system Trypanosoma brucei brucei; conditions: for in vivo trypanocidal activity in mice (in words): 100 mg/kg i.p.; for Cured/Infected / Mean Survival: 100 mg/kg × 4 days i.p., NMRI mice; for Mean Survival: untreated control 5.25 days
Description: In vivo efficacy studies in mice were conducted at the Swiss Tropical and Public Health Institute (Basel) (License number 2813) according to the rules and regulations for the protection of animal rights (“Tierschutzverordnung”) of the Swiss “Bundesamt für Veterinärwesen”. They were approved by the veterinary office of Canton Basel-Stadt, Switzerland. Groups of four female NMRI mice weighing 20 to 25 g were infected i.p. on Day 0 (d0) with 10^5 bloodstream forms of T. brucei brucei STIB 795, which is a derivative of strain 427. Compounds were formulated in 100% DMSO diluted 10-fold in distilled water. Mice were treated on four consecutive days (d3 to d6 post-infection) with the Origanum onites oil, as well as carvacrol and thymol, at 100 mg/kg by the i.p. route. One group served as untreated controls, and two other groups were treated with the standard drugs pentamidine (5 mg/kg for 4 days) and melarsoprol (2 mg/kg for 4 days), respectively. The levels of parasitemia of the mice were checked by microscopic examination of tail blood on Day 7 and thereafter twice a week until Day 30 post infection. Mice were considered cured when there was no parasitaemia relapse detected in the tail blood over the 30 day observation period. The day of relapse and surviving days were recorded.

SMILES | IC50 T. brucei brucei [1] | IC50 ([2]; axenic amastigotes, means of two determinations ± deviation) | IC50 promastigote forms of L. chagasi [3] | IC50 ([4]; K1 strain (chloroquine- and pyrimethamine-resistant), erythrocytic stages, means of two determinations ± deviation, read-out: IC50 Plasmodium falciparum) | IC50 [5] | inhibitory activity against T. cruzi (in words) [5] | in vivo trypanocidal activity in mice (in words) [6] | Cured/Infected [6] | Mean Survival [6] | Mean Survival ([6]; listed as thymol) | IC50 [2] | IC50 ([4]; K1, read-out: IC50 Plasmodium falciparum)
Cc1ccc(C(C)C)c(O)c1 [Thymol] | 22.9 µg/mL (≈ 152 µM) | 17.3 ± 4.1 µg/mL (≈ 115 µM) | 9.8 µg/mL | 5.7 ± 0.03 µg/mL (≈ 37.9 µM) | > 90 µg/mL | inactive | extended the survival time of infected mice; also recorded: had some effect | 0/4 | 9.0 days | 9 days |  | 
Cc1ccc(C(C)C)cc1O [Carvacrol] | 11.3 µg/mL (≈ 75.2 µM) |  | 2.3 µg/mL |  | > 90 µg/mL | inactive | inactive | 0/4 | 5.25 days |  | 13.1 ± 3.9 µg/mL (≈ 87.2 µM) | 6.4 ± 0.9 µg/mL (≈ 42.6 µM)
